Where two headings read alike, the source gives them in different places.
Key:
[1] = molecular target: human NR1/NR2B ion channels (Homo sapiens (Human), UniProt Q05586+Q13224); assay: HNR2BC: calcium influx assay on cloned human NR1/NR2B ion channels expressed in HEK cells; format: cell-based; details: HEK cells with hNR1/NR2B, 100 μM glutamate + 100 μM glycine, 3 parameter plot
Experimental: HNR2BC: Effects of Test Articles on Cloned Human NR1/NR2B Ion Channels Expressed in Mammalian Cells
The ability of test compounds to act as an antagonist of NR1/NR2B was evaluated with a calcium influx assay (Calcium 5 Assay Kit, Molecular Devices).
For the antagonist assessment, NR1/NR2B was activated with the positive control agonist (Mg^2+-free HBPS+100 μM glutamic acid+100 μM glycine).
A HEK cell line, stable transfected with hNR1/NR2B was used. This tetracycline inducible cell line is transfected with GRIN1 (GeneBank accession number NM_007327.2) and GRIN2B (GeneBank accession number NM_000834.3.). The cells were cultured in cell culture flasks with DMEM/F12 supplemented with 10% FCS, 1% PenStrep and a selection of additional antibiotics.
Forty-Eight (48) hours before the assay the cells were plated into 96-well black well, flat clear bottom microtiter plates at a density of 50000 cells/well. Twenty-Four (24) hours later the receptor expression was induced by the addition of 1 μg/ml tetracycline in the presence of 2 mM ketamine and 200 μM 7-CKA. After 24 h of receptor induction the plates were used for the assay.
The medium was removed and the cells were loaded with 200 μl loading buffer (Molecular Devices) in Mg2+-free HBPS containing 100 μM 7-CKA at 37° C. for one (1) hour.
The test compounds were then solubilized in 100% DMSO and diluted to yield eight (8) different concentrations in 100% DMSO. A 96 well drug plate was prepared by diluting with water and glycine/glutamate to a 5-fold of final test concentration. Fluorescence intensity of the cells in the plate was measured in a FlexStation using an excitation wavelength of 485 nm and an emission wavelength of 525 nm. Twenty (20) seconds after starting the recordings the compounds together with the agonists glycine (100 μM) and glutamate (100 μM) were added into the wells and the fluorescence measured for ninety (90) seconds in summary.
The IC50 values provided in the paragraph below were determined using a 3 parameter plot.

[2] = test system: mice; assay: Forced swim test in mice; format: in vivo; details: p.o. 30 minutes before the test, male NMRI mice
Experimental: The compounds of the invention show significant antidepressive effects in the forced swim test in mice, an animal model of depression at doses of 100 mg/kg or below.
The method, which detects antidepressant activity, follows that described by Porsolt et al (Arch. Int. Pharmacodyn., 229, 327-336, 1977), which is incorporated by reference herein in its entirety.
Mice forced to swim in a situation from which they cannot escape rapidly become immobile. Antidepressants decrease the duration of immobility.
Male NMRI mice (Janvier, France), weighing 20-30 g, were individually placed in a cylinder (height=24 cm; diameter=13 cm) containing 10 cm water (22° C.) from which they cannot escape.
The mice were placed in the water for 6 minutes and the duration of immobility during the last 4 minutes was measured. The latency to the first bout of immobility was also recorded starting from the beginning of the test. 10 mice were studied per group. The test substance was administered p.o. 30 minutes before the test and compared with vehicle control group. The test was performed blind.

[3] = molecular target: rat NR1/NR2B receptor (Rattus norvegicus (Rat), UniProt P35439+Q00960); assay: NR2B binding assay: inhibition of specific [3H]-Ifenprodil binding to the rat NR1/NR2B receptor; details: [3H]-Ifenprodil binding, rat brain membranes
[4] = molecular target: hERG receptor (Homo sapiens (Human), UniProt Q12809); assay: HERGBD: inhibition of specific [3H]-Dofetilide binding to the hERG receptor
Chain of hERG receptor (Q12809 whole entry): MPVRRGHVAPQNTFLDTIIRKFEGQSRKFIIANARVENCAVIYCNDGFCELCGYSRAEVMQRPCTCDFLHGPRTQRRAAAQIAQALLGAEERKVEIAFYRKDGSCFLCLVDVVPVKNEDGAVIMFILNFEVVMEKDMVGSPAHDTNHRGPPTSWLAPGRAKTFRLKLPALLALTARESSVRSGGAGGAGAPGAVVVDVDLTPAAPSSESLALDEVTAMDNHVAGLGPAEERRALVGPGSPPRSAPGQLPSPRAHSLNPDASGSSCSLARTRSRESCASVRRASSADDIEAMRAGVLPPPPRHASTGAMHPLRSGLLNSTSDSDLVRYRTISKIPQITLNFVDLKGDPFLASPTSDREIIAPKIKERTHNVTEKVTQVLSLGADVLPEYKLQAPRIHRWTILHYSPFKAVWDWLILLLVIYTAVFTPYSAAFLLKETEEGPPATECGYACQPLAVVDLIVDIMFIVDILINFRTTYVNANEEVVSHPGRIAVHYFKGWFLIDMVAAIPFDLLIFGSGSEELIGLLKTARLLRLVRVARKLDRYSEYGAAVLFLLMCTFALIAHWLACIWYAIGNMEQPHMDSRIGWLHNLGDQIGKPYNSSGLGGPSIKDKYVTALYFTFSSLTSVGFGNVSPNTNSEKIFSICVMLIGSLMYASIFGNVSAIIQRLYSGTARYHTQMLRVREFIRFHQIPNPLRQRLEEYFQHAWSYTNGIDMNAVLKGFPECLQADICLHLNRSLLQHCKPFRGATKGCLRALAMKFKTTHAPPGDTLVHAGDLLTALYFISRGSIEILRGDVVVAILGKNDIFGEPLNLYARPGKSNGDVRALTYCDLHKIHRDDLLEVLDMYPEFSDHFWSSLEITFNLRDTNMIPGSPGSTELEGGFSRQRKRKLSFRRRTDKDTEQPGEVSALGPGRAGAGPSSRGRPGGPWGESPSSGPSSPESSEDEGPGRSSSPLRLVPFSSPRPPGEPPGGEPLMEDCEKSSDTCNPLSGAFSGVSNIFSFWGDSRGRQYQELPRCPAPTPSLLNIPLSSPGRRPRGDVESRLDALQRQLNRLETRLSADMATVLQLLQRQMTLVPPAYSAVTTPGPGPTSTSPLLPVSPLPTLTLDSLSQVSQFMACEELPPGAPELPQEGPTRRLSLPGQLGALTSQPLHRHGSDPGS

Chain of human NR1/NR2B ion channels (Q13224 27-1484, other chains not shown): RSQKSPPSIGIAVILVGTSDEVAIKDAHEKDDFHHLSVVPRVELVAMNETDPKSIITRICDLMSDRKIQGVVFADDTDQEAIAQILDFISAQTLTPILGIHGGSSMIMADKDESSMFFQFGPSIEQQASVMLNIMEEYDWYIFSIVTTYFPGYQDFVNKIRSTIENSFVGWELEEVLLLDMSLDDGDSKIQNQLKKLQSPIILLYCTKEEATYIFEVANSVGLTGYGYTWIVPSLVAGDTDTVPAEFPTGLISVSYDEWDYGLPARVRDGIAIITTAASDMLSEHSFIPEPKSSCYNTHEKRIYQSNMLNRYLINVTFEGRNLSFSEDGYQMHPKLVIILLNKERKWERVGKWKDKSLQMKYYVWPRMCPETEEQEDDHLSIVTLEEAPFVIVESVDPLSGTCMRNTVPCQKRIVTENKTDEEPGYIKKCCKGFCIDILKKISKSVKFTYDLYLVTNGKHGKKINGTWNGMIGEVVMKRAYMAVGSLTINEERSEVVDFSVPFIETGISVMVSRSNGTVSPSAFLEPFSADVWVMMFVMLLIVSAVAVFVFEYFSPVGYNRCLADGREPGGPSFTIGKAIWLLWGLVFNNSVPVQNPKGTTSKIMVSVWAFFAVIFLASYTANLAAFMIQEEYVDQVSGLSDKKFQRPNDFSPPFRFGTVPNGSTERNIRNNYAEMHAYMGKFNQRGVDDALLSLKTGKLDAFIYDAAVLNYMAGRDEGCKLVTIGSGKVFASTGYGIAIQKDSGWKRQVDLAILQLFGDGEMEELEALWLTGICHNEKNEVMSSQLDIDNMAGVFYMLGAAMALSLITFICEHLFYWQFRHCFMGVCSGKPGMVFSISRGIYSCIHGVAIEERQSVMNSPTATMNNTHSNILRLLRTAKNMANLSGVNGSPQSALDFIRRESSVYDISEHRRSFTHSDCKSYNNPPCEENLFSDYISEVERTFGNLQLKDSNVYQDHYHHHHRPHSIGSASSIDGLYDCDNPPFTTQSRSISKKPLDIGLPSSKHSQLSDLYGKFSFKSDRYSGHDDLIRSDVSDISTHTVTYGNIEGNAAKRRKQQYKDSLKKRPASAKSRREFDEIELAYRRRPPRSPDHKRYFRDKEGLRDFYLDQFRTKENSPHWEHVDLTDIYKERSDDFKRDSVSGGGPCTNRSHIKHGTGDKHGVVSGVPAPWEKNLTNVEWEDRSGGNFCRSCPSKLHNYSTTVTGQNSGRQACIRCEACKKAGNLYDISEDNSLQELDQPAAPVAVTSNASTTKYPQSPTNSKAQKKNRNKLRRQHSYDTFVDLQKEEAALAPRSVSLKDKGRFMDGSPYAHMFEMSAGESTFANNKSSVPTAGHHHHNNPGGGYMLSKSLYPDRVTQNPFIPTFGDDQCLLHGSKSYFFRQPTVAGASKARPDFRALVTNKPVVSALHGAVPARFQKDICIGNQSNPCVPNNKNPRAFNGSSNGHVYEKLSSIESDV
Chain of rat NR1/NR2B receptor (Q00960 27-1482, other chains not shown): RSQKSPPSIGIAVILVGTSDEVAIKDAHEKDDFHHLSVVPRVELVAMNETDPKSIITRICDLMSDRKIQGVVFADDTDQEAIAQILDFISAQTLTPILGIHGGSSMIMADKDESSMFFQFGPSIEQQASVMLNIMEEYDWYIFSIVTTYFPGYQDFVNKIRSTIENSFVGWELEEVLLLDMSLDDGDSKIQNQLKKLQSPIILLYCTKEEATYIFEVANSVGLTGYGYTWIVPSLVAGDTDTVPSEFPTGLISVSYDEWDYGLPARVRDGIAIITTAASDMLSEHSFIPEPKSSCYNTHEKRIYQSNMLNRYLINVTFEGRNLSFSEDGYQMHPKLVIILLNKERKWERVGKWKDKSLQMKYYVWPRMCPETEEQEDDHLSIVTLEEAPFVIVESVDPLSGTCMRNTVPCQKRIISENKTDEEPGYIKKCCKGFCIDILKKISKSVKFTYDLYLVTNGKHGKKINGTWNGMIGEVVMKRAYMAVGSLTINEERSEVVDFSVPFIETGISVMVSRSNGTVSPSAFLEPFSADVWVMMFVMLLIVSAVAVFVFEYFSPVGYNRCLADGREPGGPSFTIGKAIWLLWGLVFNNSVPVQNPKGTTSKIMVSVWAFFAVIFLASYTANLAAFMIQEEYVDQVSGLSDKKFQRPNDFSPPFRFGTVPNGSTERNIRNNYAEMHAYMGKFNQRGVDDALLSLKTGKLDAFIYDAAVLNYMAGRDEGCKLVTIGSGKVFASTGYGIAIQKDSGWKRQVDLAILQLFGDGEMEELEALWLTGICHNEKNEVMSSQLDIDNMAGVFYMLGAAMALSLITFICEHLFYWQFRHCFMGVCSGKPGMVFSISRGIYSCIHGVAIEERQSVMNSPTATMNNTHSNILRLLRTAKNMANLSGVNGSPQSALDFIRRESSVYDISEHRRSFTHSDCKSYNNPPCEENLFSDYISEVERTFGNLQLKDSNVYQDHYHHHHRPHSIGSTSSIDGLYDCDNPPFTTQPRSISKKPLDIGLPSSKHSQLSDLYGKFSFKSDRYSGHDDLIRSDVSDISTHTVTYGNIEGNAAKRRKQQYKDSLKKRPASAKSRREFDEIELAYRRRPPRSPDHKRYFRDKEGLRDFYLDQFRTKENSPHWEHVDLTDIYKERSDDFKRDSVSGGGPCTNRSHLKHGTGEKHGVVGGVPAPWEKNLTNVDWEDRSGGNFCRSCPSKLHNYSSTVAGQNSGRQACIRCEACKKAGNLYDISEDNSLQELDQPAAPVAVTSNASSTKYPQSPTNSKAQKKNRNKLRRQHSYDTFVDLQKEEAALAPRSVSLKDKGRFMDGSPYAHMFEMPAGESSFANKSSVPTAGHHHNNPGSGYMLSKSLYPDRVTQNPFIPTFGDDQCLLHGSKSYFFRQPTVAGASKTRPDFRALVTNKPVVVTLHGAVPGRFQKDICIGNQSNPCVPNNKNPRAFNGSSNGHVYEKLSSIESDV

Row | Compound | IC50 [1] [µM] | Minimum effective dose [2] [mg/kg] | IC50 [3] [µM] | IC50 [4] [µM] | IC50 ([4]; [3H]-Dofetilide binding, membranes of HEK cells with human ERG receptor, read-out: IC50) [µM]
1 | Cn1ccc(Cn2cc(-c3ccc(Cl)c(OC(F)F)c3)cn2)n1 [Example 2, 3-[[4-[4-Chloro-3-(difluoromethoxy)phenyl]pyrazol-1-yl]methyl]-1-methyl-pyrazole] | 2.46 | 30 |  |  | 
2 | Fc1ccc(-c2cnn(Cc3cc[nH]n3)c2)cc1OC(F)F [Example 18, 4-[3-(difluoromethoxy)-4-fluoro-phenyl]-1-(1H-pyrazol-3-ylmethyl) pyrazole] | 0.37 | 10 |  |  | 
3 | Cn1ccc(Cn2cc(-c3ccc(F)c(C(F)F)c3)cn2)n1 [Example 31, 3-[[4-[3-(difluoromethyl)-4-fluoro-phenyl]pyrazol-1-yl]methyl]-1-methyl-pyrazole Succinate] | 7.77 |  | 0.264 | 19.7 | 
4 | CCc1c[nH]nc1Cn1cc(-c2ccc(F)c(OC(F)F)c2)cn1 [Example 91, 3-[[4-[3-(difluoromethoxy)-4-fluoro-phenyl]pyrazol-1-yl]methyl]-4-ethyl-1H-pyrazole Succinate] | 1.25 |  | 0.0438 | 48.9 | 
5 | Cn1ccc(Cn2cc(-c3ccc(Cl)cc3)cn2)n1 [Example 75, 3-[[4-(4-Chlorophenyl)pyrazol-1-yl]methyl]-1-methyl-pyrazole] | 33.8 |  | 3.04 | 131 | 
6 | CCc1[nH]ncc1Cn1cc(-c2ccc(F)c(C(F)F)c2)cn1 [Example 43, 4-[3-(Difluoromethyl)-4-fluoro-phenyl]-1-[(5-ethyl-1H-pyrazol-4-yl)methyl]pyrazole] | 2.66 |  | 0.134 | 57.4 | 
7 | FC(F)Oc1cc(-c2cnn(Cc3cn[nH]c3)c2)ccc1Cl [Example 7, 4-[4-Chloro-3-(difluoromethoxy)phenyl]-1-(1H-pyrazol-4-ylmethyl)pyrazole] | 0.35 |  | 0.00823 | 52.6 | 
8 | Cc1cc(Cn2cc(-c3ccc(Cl)cc3)cn2)n(C)n1 [Example 74, 5-[[4-(4-Chlorophenyl)pyrazol-1-yl]methyl]-1,3-dimethyl-pyrazole] | 51 |  | 6.06 | > 100 | 
9 | CCc1cc(Cn2cc(-c3ccc(F)c(C(F)F)c3)cn2)n[nH]1 [Example 40, 3-[[4-[3-(Difluoromethyl)-4-fluoro-phenyl]pyrazol-1-yl]methyl]-5-ethyl-1H-pyrazole] | 3.3 |  | 0.047 | 23.3 | 
10 | CCc1cc(Cn2cc(-c3ccc(Cl)c(OC(F)F)c3)cn2)n[nH]1 [Example 14, 3-[[4-[4-Chloro-3-(difluoromethoxy)phenyl]pyrazol-1-yl]methyl]-5-ethyl-1H-pyrazole] | > 10 |  | 0.0762 |  | 16.1
11 | Cc1cc(Cn2cc(-c3ccc(F)c(C(F)F)c3)cn2)[nH]n1 [Example 39, 4-[3-(Difluoromethyl)-4-fluoro-phenyl]-1-[(3-methyl-1H-pyrazol-5-yl)methyl]pyrazole] | 2.4 |  | 0.102 | 90.2 | 
12 | Cc1[nH]ncc1Cn1cc(-c2ccc(F)c(C(F)F)c2)cn1 [Example 42, 4-[3-(Difluoromethyl)-4-fluoro-phenyl]-1-[(5-methyl-1H-pyrazol-4-yl)methyl]pyrazole] | 2.3 |  | 0.202 | 71.6 | 
